Results on seven compounds are retold here after article PMC4771075 (Journal of medicinal chemistry, 2015).

Test [1] addresses kappa opioid receptor (KOR) (Rattus norvegicus, UniProt P34975). The test is described as follows: biochemical. In kind it is binding.
Test [2] addresses T1, KOR (Rattus norvegicus, UniProt P34975). To be noted: after a single dose; cited from earlier work.
Test [3] concerns the target mu opioid receptor (MOR) (Rattus norvegicus, UniProt P33535). The experiment in a line: Radioligand binding assay, MOR.
The test system of test [4] is stress-induced reinstatement of cocaine seeking behavior. The conditions noted are these: mice, s.c. administration; cited from earlier work.
Test [5] concerns the target T1, KOR. The experiment in a line: Agonist stimulated [^35S]GTPγS binding assay, agonist efficacy. Type of test: biochemical.
Test [6] deals with T1, KOR. The experiment in a line: Schild analysis against Dyn A. Type of test: biochemical.
In test [7] the target is T1, KOR. The conditions noted are these: read-out: KOR Ki found previously; cited from earlier work.

Several values for one entry are separate records, joined by “and”; a condition that tells them apart may be missing. Equal entries are not always repeated. Where two headings read alike, the source gives them in different places. Square brackets hold non-standard residues; d marks the D form. * marks the point of attachment. Dap = NC[C@H](N)C(=O)O; Bn = c1ccc(C*)cc1

T1 sequence (P34975 whole entry): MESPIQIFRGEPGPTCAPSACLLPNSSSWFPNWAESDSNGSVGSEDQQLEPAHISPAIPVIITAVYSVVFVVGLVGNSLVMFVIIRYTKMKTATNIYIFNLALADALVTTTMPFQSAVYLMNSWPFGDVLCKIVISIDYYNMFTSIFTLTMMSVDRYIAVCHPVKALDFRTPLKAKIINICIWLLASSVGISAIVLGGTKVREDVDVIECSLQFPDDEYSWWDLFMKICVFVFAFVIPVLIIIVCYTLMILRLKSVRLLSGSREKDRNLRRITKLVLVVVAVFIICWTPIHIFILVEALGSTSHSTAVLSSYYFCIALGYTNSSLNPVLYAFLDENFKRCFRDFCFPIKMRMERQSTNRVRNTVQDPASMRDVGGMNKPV
kappa opioid receptor (KOR), sequence (P34975 whole entry): as above
mu opioid receptor (MOR), sequence (P33535 whole entry): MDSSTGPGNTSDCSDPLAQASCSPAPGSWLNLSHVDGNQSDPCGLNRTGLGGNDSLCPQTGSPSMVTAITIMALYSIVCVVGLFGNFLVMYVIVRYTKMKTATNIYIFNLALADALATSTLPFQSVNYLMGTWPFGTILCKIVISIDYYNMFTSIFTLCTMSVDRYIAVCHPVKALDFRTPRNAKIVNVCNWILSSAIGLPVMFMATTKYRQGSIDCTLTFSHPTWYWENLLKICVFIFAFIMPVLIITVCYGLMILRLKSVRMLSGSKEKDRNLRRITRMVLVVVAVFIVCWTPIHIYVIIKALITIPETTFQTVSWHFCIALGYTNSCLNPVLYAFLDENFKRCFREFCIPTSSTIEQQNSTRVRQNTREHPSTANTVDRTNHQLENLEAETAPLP

A word on the Ki: it is a measure of affinity in units of concentration, obtained from inhibition or displacement. For the compound `CC[C@H](C)[C@H](NC(=O)[C@H](CCCN=C(N)N)NC(=O)[C@H](CCCN=C(N)N)NC(=O)[C@H](CC(C)C)NC(=O)[C@H](Cc1ccccc1)NC(=O)CNC(=O)CNC(=O)[C@@H](N)Cc1ccc(O)cc1)C(=O)N[C@@H](CCCN=C(N)N)C(=O)N1CCC[C@H]1C(=O)N[C@@H](CCCCN)C(N)=O` [Dyn A(1-11)NH2, reference compound], the Ki in test [1] (KOR Ki (nM ± SEM)) worked out at 2.6 ± 0.3 nM.

Consider `CC(C)[C@@H](CN1CC[C@@](C)(c2cccc(O)c2)[C@@H](C)C1)NC(=O)[C@H]1Cc2ccc(O)cc2CN1` [JDTic, (3R)-7-hydroxy-N-[(2S)-1-[(3R,4R)-4-(3-hydroxyphenyl)-3,4-dimethylpiperidin-1-yl]-3-methylbutan-2-yl]-1,2,3,4-tetrahydroisoquinoline-3-carboxamide], for which the “duration of KOR antagonist activity” value in test [2] was “lasting weeks after a single dose”.

`N=C(N)NCCC[C@@H]1NC(=O)[C@H](CCCNC(=N)N)NC(=O)[C@H](NC(=O)[C@H](Cc2ccccc2)NC(=O)CNC(=O)CNC(=O)[C@H](Cc2ccc(O)cc2)NCc2ccccc2)CC(=O)NC[C@@H](C(=O)N[C@@H](CCCNC(=N)N)C(=O)N2CCC[C@H]2C(=O)N[C@@H](CCCCN)C(N)=O)NC1=O` [Peptide 1, [N-benzyl-Tyr^1-cyclo(D-Asp^5,Dap^8)]dynorphin A(1-11)NH2]: the Ki in test [1] (KOR Ki 95% confidence interval, n = 10) is 30 to 160 nM; in test [1] (KOR Ki (nM ± SEM)), 95.2 ± 28.8 nM; in test [3], 4380 ± 560 nM. For the same compound, the “Relative KOR affinity” value in test [1] (compared to zyklophin (1.0)) came to 1.0. Also, the “stress-induced reinstatement of cocaine seeking behavior” value in test [4] was “suppressed”.

`CC[C@H](C)[C@H](NC(=O)[C@H](CCCNC(=N)N)NC(=O)[C@H](CCCNC(=N)N)NC(=O)[C@@H](CC(N)=O)NC(=O)[C@H](Cc1ccccc1)NC(=O)CNC(=O)CNC(=O)[C@H](Cc1ccc(O)cc1)NCc1ccccc1)C(=O)N[C@@H](CCCNC(=N)N)C(=O)N1CCC[C@H]1C(=O)N[C@@H](CCCCN)C(N)=O` [Peptide 2, NBn-Tyr^1-Gly-Gly-Phe-DAsn^5-Arg-Arg-Ile-Arg-Pro-Lys-NH2]: in test [1], the “fold lower KOR affinity compared to zyklophin” value was 4 fold.

One may read the EC50 as the midpoint of the concentration-response curve. Low values mean greater potency, high ones weaker potency. In the case of `CC(=O)NC[C@H](NC(=O)[C@H](CCCNC(=N)N)NC(=O)[C@H](CCCNC(=N)N)NC(=O)[C@H](CC(C)C)NC(=O)[C@H](Cc1ccccc1)NC(=O)CNC(=O)CNC(=O)[C@H](Cc1ccc(O)cc1)NCc1ccccc1)C(=O)N[C@@H](CCCNC(=N)N)C(=O)N1CCC[C@H]1C(=O)N[C@@H](CCCCN)C(N)=O` [Peptide 3, NBn-Tyr^1-Gly-Gly-Phe-Leu-Arg-Arg-Dap(Ac)^8-Arg-Pro-Lys-NH2], in test [1], the “Ki ratio, Ki (MOR)/Ki (KOR)” value stood at 5; the “Relative KOR affinity” value worked out at 3.3; the “fold higher KOR affinity compared to zyklophin” value is 3 fold. Further, the Ki in test [1] (KOR Ki (nM ± SEM)) is 28 nM and 28.6 nM. In test [3], affinity was put at a Ki of 157 ± 25 nM and the “fold higher MOR affinity than zyklophin” value stood at 28 fold. The compound also showed an EC50 in test [5] of 39.5 ± 17.4 nM. The “KOR efficacy in the GTPγS assay” value in test [5] (screened at 10 µM, compared to the full agonist Dyn A(1-13)NH2) was determined as 26%.

In test [6], `Oc1ccc2c3c1O[C@H]1c4[nH]c5c(c4C[C@@]4(O)[C@@H](C2)N(CC2CC2)CC[C@]314)C[C@@]1(O)[C@H]2Cc3ccc(O)c4c3[C@@]1(CCN2CC1CC1)[C@H]5O4` [norBNI, nor-binaltorphimine, reference compound] displayed a Kb of 0.074 nM. For the same compound, the “duration of KOR antagonist activity” value in test [2] was “lasting weeks after a single dose”.

As to “[N-benzyl-Tyr^1,D-Asn^5,Dap(Ac)^8]Dyn A(1-11)NH2 (Bn-YGGF[dN]RR[Dap](Ac)RPK-NH2; not fully specified (residue 1))”, the Ki in test [7] is 66.9 nM.
